Reference: US20240301003A1 (NoNO Inc., priority 2021, published 2024)
Entries after “also recorded” stand apart in the source; their conditions may differ. Where a SMILES comes first, the peptide text is derived from it. Where no end group is shown, it is not given here. [ ]: non-standard residue; d: D form.

Columns and labels:
[1] = target: T1, PSD95PDZ2 (Homo sapiens, UniProt P78352); assay: Competitive ELISA with biotinylated-NA-1
Target sequence in this assay (P78352 160-246 limits assumed): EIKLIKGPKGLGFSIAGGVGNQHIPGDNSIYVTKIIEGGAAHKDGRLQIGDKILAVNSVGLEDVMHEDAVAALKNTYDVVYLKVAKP

[2] = test system: histamine release; assay: Histamine release in rats, plasma histamine ELISA; conditions: rats
Experimental: Histamine levels were quantified by using commercially available histamine ELISA assay kit (Histamine ELISA-H1531-K01, Eagle Bioscience). The plates were coated with the plasma samples (50 ul/well) incubated for 60 minutes at room temperature on an orbital shaker with medium frequency. Then 100 ul of enzyme conjugate was added to the wells and incubated for 20 minutes at room temperature. […] The reaction was stopped with 100 ul H2SO4. Absorbance was determined on an ELISA plate reader at 450 nm.
Blood samples were taken at pre-injection and at 0, 1, 2.5, 5, 10, 15, 30- and 60-minutes post dose and used for histamine levels quantification using commercially available kit.

[3] = Plasma concentrations 15 minutes post subcutaneous dose (animals of the 3PVO model); assay type: in vivo, rat
Experimental: Unlike transient models of stroke in rats where much lower doses are required for neuroprotection, neuroprotection in 3 pial vessel occlusion models of stroke seems to require plasma concentrations of nerinetide at or above 2 ug/mL (or molar equivalent). […] Although the plasma levels continue to increase through about 3 hours then decrease, it is important to achieve rapid accumulation in the blood and brain for emergency indications like stroke. […] For pharmacokinetic sample analysis, calibration standard samples at concentrations of 0, 2.5, 5, 10, 15, 20 and 40 ug/mL of nerinetide were prepared by spiking 1 μL of the appropriate stock to 100 μL of plasma. […] Data is presented as mean±SD.

[4] = NA-3 pharmacokinetics after subcutaneous injection in non-human primates; assay type: in vivo, cynomolgus macaques; conditions: for plasma concentrations achieved: cynomolgus macaques
From the text: All values are presented as mean±SD; Statistical significance when compared to nerinetide alone is indicated as * (one-way ANOVA with post-hoc turkey's correction, *P<0.01). (Cmax: maximum plasma concentrations based on the extrapolated time-zero value; t1/2: half-life at terminal phase; tmax: time to reach Cmax; AUC0-t: area under the concentration-time curve from 0 to the last measured value; AUC0-inf: extrapolated area under the concentration-time curve from 0 to infinity; Cl: total clearance). Data is presented as mean±SD of three-four animals per group. The (-) represent data not reported due to an extrapolation of the AUC0-inf greater than 20% and R^2 lower than 0.9.

[5] = MTD studies and renal toxicity in rats (creatinine, BUN)
[6] = Pharmacokinetic analysis in rats (subcutaneous, pulmonary instillation, intravenous, intramuscular), HPLC
Experimental: Rats were anaesthetized in the supine position (Isoflurane 1.5--%) and allowed to breath spontaneously in 0.5 L/min 02. The left femoral artery was cannulated for blood sampling.
Test agents were prepared at the stablish concentration in a total volume of vehicle. Pulmonary instillation was performed by intubation with a 14G catheter connected to a 1 cc syringe and the test agent will be delivered through the catheter. Subcutaneous (SQ or SC) injection was injected into the area of the left flank, no more than 2 ml of total volume per site.
Each dose was evaluated in 3 rats for each administration strategy. […] For the first experiment, evaluating two different administration routes (SQ and PI), blood samples were collected at 8 different timepoints: Pre and at 7 additional times (1, 2.5, 5, 10, 15, 30, 60 min) post dose (250 ul/sample).
HPLC quantification: Plasma was separated from blood and stored at −−−80° C. until used. […] Standard curves for HPLC were generated from plasma samples spiked with known quantities of test agent.

[7] = Physiologic parameters of NHP animals post NA-3 subcutaneous dose; assay type: in vivo, cynomolgus macaques
[8] = target: PSD-95 PDZ domain 2 (UniProt P78352); assay: competitive ELISA on coated PSD95PDZ2
Sequence of PSD-95 PDZ domain 2 (P78352 160-246 limits assumed): as above

[9] = target: T1, PSD95PDZ2; assay: direct ELISA; biotinylated peptide (Bio-D-NA1)
Target sequence in this assay (P78352 160-246): as the sequence (P78352 160-246 limits assumed) above

[10] = target: PSD-95 PDZ domain 2 (UniProt P78352); assay: competitive ELISA on coated PSD95PDZ2, competitor biotinylated NA-1
[11] = target: T1, PSD95PDZ2; assay: direct ELISA; biotinylated peptide (Bio-D-Tat-L-NA1); unit printed "um"
Target sequence in this assay (P78352 160-246): as the sequence (P78352 160-246 limits assumed) above

[12] = test system: plasmin; assay: digested with plasmin
[13] = rat plasma in vitro with tPA administered simultaneously

Molecule: CC[C@H](C)[C@H](NC(=O)[C@@H](CO)NC(=O)[C@@H](CO)NC(=O)[C@@H](CC(C)C)NC(=O)[C@@H](CCCCN)NC(=O)[C@@H](CCCNC(=N)N)NC(=O)[C@@H](CCCNC(=N)N)NC(=O)[C@@H](CCCNC(=N)N)NC(=O)[C@@H](CCC(N)=O)NC(=O)[C@@H](CCCNC(=N)N)NC(=O)[C@@H](CCCNC(=N)N)NC(=O)[C@@H](CCCCN)NC(=O)[C@@H](CCCCN)NC(=O)[C@@H](CCCNC(=N)N)NC(=O)CNC(=O)[C@H](N)Cc1ccc(O)cc1)C(=O)N[C@@H](CCC(=O)O)C(=O)N[C@@H](CO)C(=O)N[C@@H](CC(=O)O)C(=O)N[C@H](C(=O)O)C(C)C [NA-3, ygrkkrrqrrrklssIESDV] (HELM PEPTIDE1{[dY].G.[dR].[dK].[dK].[dR].[dR].[dQ].[dR].[dR].[dR].[dK].[dL].[dS].[dS].I.E.S.D.V}$$$$V2.0; N-terminus and C-terminus assumed)
- IC50 [1]: < 5 µM
- IC50's relative to each other ([1]; FIG. 11, within the margin of error): within a factor of two of each other
- histamine release ([2]; 25 mg/kg SQ): resulted in histamine release but still much less than 7.6 mg/kg IV
- histamine release ([2]; subcutaneous 2.8 mg/kg): did not result in significant histamine release
- histamine release ([2]; subcutaneous 8.3 mg/kg): did not result in significant histamine release
- plasma concentration compared to nerinetide at the same dose ([3]; 15 min post subcutaneous dose): higher concentration at 15 min post-dose
- relation between treatment dose and Cmax ([3]; single subcutaneous administration, 2.5, 7.6, 25 mg/kg): dose proportionality between the treatment dose and the Cmax
- plasma concentrations achieved ([4]; subcutaneous 7.6 mg/Kg): able to achieve plasma concentrations higher than those demonstrated to be effective in humans
- plasma concentrations achieved ([4]; subcutaneous 25 mg/kg): able to achieve plasma concentrations higher than those demonstrated to be effective in humans
- Cmax and AUC versus nerinetide IV infusion ([4]; subcutaneous 25 mg/kg): greater Cmax and AUC than nerinetide IV infusion
- therapeutic index ([5]; minimum effective dose versus highest no observed adverse effect level): low
- creatinine and BUN values out of range ([5]; rats, subcutaneous 7.6 mg/kg or 2.6 mg/kg): No values out of range were observed
- persistence of creatinine and BUN increases ([5]; rats, subcutaneous 25 mg/kg): persisted through day 7
- creatinine and BUN (blood urea nitrogen) ([5]; rats, subcutaneous 25 mg/kg or 50 mg/kg, day 1 post dose): dose-dependent increases in creatinine and BUN
- creatinine levels on reducing the dose 2-fold ([5]; rats, subcutaneous, versus 25 mg/kg NA-3, pre and after 1 day): significant reduction of the NA-3 creatinine levels
- plasma concentration and plasma exposure relative to intrapulmonary NA-1 ([6]; pulmonary instillation): higher plasma concentration and a greater plasma exposure
- CMax after pulmonary instillation ([6]; pulmonary instillation 25 mg/kg): higher CMax than for NA-1 or D-Tat-L-2B9C
- AUC compared with subcutaneous NA-1 ([6]; subcutaneous 25 mg/kg): increased
- Cmax compared with subcutaneous NA-1 ([6]; subcutaneous 25 mg/kg): increased
- dose dependence of Cmax and AUC ([6]; subcutaneous 25, 8.3, 2.8 mg/kg): dose-dependent increasing linearly with dose
- drops in blood pressure compared to NA-1 [7]: No significant drops in blood pressure were observed
- safety issues in physiologic parameters compared to intravenous nerinetide [7]: no significant safety issues were identified

Molecule: D-NA-1 (peptide)
- fold change of EC50 against NA-1 and D-Tat-L-2B9C [8]: 10 fold

Molecule: D-NA-1 NA1
- EC50 [9]: 1.38 µM

Molecule: D-TAT-L-2B9c (peptide)
- ratio of IC50 against D-Tat-L-IESDV [10]: < 2 fold

Molecule: D-Tat-L-NA-1
- EC50 [11]: 0.139 µM

Molecule: YGRKKRRQRRRKLSSIESDV
- fragment found [12]: RRQRRRKLSSIESDV; also recorded: RQRRRKLSSIESDV; also recorded: QRRRKLSSIESDV; also recorded: RRKLSSIESDV; also recorded: RKLSSIESDV; also recorded: KLSSIESDV; also recorded: LSSIESDV

Molecule: yGrkkrrqrrrKLSSIESDV ([dY]G[dR][dK][dK][dR][dR][dQ][dR][dR][dR]KLSSIESDV)
- not cleaved [13]: only negligible degradation when co-administered with tPA
